Laboratory results: patent US9809521B2, “Cannabidinoid derivatives” (priority 2011, dated 2017)
Entries after “also recorded” stand apart in the source; their conditions may differ. Like-named read-outs stand apart in the source and are kept apart here. Marks after values point to notes of the source that are not given here.

How the values were obtained:
MDA-MB231 cells [1] = assay: MTT cell proliferation/viability assay
Description: (§1) The structure of O-1442 and O-1663 are almost identical with the exception of one R group. A smaller subset of the same analogs, including O-1442 and O-1663, were further screened for their ability to inhibit 4T1 breast cancer cell viability in anticipation of running in vivo experiments in immune competent mice (TABLE 5).
(§2) To directly test whether the O-1663 CBD analog could co-target two distinct cannabinoid antitumor pathways, the effects of CBD and the O-1663 CBD analog on cell viability with multiple antagonists were probed (FIG. 25). […] The ability of the O-1663 CBD analog and CBD to inhibit invasion was next compared (FIG. 25, panel C).

4T1 cells = assay: Cell viability assay; type: cell-based, mouse; conditions: Table 5; read-out: IC50, 4T1 cell viability
Description: as §1

Id-1 = assay: Quantitative Western analysis of Id-1 protein expression in MDA-MB231 cells; type: cell-based, human; conditions: 1.5 μM, two days
Method: Quantitative Western analysis of Id-1 Expression in MDA-MB231 cells with CBD, Δ^9-THC, or WIN 55,212-2. The ability of CBD to regulate the expression of key genes that control breast cancer cell aggressiveness and invasiveness was determined.
SAR Analysis of Id-1 expression in MDA-MB231 cells with (Abn)-CBD receptor, Abn-CBD, O-1602, CP55,940, THC, CBN, or CBD. In order to determine the structure activity relationship (“SAR”) between cannabinoids and the inhibition of Id-1, MDA-MB231 cells were treated for two days with multiple cannabinoid compounds and Id-1 protein levels were assessed.
Quantitative Western analysis of Id-1 expression in MDA-MB231 cells and U251 cells with CBD or O-1663 CBD analog. […] MDA-MB231 breast cancer cells and U251 GBM cells were treated with 1.0 μM of cannabinoid for two days and then analyzed for Id-1 protein expression by quantitative Western analysis.

MDA-MB436 cells = assay: MTT cell proliferation assay; conditions: read-out: IC50, antiproliferative, MDA-MB436
SF126 cells = assay: MTT cell proliferation assay; conditions: read-out: IC50, SF126
MDA-MB231 cells [2] = assay: Boyden chamber invasion assay; type: cell-based, human; conditions: 0.1, 1.0 or 1.5 μM
Method: Boyden chamber MDA-MB231 cell invasion studies with CBD, Δ^9-THC, or WIN 55,212-2. Invasion is an important step towards breast cancer cell metastasis. Therefore, the effects of several cannabinoids were tested on their ability to modulate the migratory and invasiveness activity of the most aggressive human breast cancer cell line, MDA-MB231, in a reconstituted basement membrane in a Boyden chamber.
Assays using Id-1 promoter reporter transfected MDA-MB231 cells with CBD. To determine if Id-1 represented a key mediator of CBD effects in highly aggressive breast cancer cells, Id-1 was constitutively expressed into MDA-MB231 cells (+)Id-1 as described in FIG. 2. The ectopic Id-1 gene, which is not under the control of the endogenous promoter, was introduced in the cells using the pLXSN retroviral vector. As a control, cells were infected with an empty pLXSN vector (−)Id-1.
Boyden chamber MDA-MB231 cell invasion studies with CBD and O-1663 CBD analog. Boyden chamber studies for invasion by MDA-MB231 or U251 cells were performed with either CBD or O-1663 CBD analog.
as §2

U251 cells [3] = assay: Boyden chamber invasion assay; type: cell-based, human
Description: Boyden chamber U251 cell invasion studies with CBD and/or Δ^9-THC. In addition to uncontrolled cell growth, a hallmark phenotype of aggressive GBM tumor cells is their ability to migrate away for the primary tumor of origin and invade into neighboring CNS tissue.

ROS = ROS measurement in MDA-MB231 cells; type: cell-based, human; conditions: two days; approximate IC50 for CBD and THC
Description: In culture, CBD-induced generation of ROS is a primary mechanism that leads to inhibition of cell growth, invasion, and survival across multiple cancers. The generation of ROS by CBD leads to the inhibition of Id-1 expression in breast cancer cells. […] The ability of CBD and the O-1663 CBD analog to stimulate the production of ROS was next compared. […] The involvement of CB2 receptors in the productions of ROS produced by CBD and the O-1663 CBD analog was next investigated.

U251 cells [4] = assay: Cell cycle analysis (PI staining, FACS); type: cell-based, human; conditions: THC 1.7 μM, CBD 0.4 μM
Method: Cell cycle analysis: U251 cells were grown in Petri dishes (100 mm×15 mm) and received drug treatments for 2 days. On the third day, the cells were harvested and centrifuged at 1200 rpm for 5 minutes. The pellet was washed 1× with PBS+1% BSA, and centrifuged again. The pellet was re-suspended in 0.5 ml of 2% paraformaldehyde (diluted with PBS) and left to fix overnight at room temperature. The next day the cells were pelleted and re-suspended in 0.5 ml 0.3% Triton in PBS and incubated for 5 minutes at room temperature. The cells were then washed 2 times with PBS+1% BSA. The cells were finally suspended in PBS (0.1% BSA) with 10 ug/ml Propidium Iodide and 100 μg/ml RNAse. The cells were incubated for 30 minutes at room temperature before being stored at 4° C. Cell cycle was measured using a FACS Calibur using Cell Quest Pro and Modfit software.
Apoptosis Studies using U251 cells with Δ^9-THC and/or CBD. […] Therefore, U251 cells were treated with THC and CBD alone or with the combination of the two, and cell cycle was analyzed using cell flow cytometery (FIG. 20). […] Additionally, there was an increase in the population of cells in the G2/M phase. These changes in G1, S and G2/M phase are hallmarks of cell cycle arrest.
(§3) Albeit, the magnitude of these effects was reduced compared to those observed with the combination treatment.

U251 cells [5] = assay: Apoptosis (annexin staining, FACS); type: cell-based, human
Method: Apoptosis: Cells were grown in 6 well culture dishes and were treated with compounds of the disclosure every 24 hours for three days. […] The labeled cells were analyzed by flow cytometry. Cell Flow Cytometry in combination with PI and annexin staining was used to quantify the percentage of cells undergoing apoptosis in control and treatment groups. Percent control was calculated as annexin positive staining in treated cells/control cells×100. PI staining was used to distinguish necrotic cells from those undergoing apoptosis.
as §3
The concentrations of the individual cannabinoids (THC and CBD) were next increased in order to attempt to match levels of apoptosis produced by the combination treatment. The purpose of these experiments was to determine whether the compounds alone recruited similar pathways as compared to the combination of THC and CBD. […] However, THC alone could not produce the level of apoptosis observed with the combination treatment (FIG. 23, panel A and B).

caspase 3, 7, 9 and PARP = assay: Western analysis of caspases and PARP in U251 cells; type: cell-based, human; conditions: THC 1.7 μM, CBD 0.4 μM, three days
Description: Caspases play a primary role in the regulation of programmed cell death.

U87 cells = assay: MTT cell proliferation assay; conditions: read-out: IC50, U87; seven day treatment; 95% confidence limits in brackets
U251 cells [6] = assay: MTT cell proliferation assay; conditions: read-out: IC50, U251; seven day treatment; 95% confidence limits in brackets
pERK, JNK, p38 MAPK = assay: Western analysis of MAPK activity in U251 cells
[7] = Homo sapiens, MDA-MB-231, 72 h, read-out: IC50, antiproliferative, MDA-MB231
[8] = read-out: IC50, antiproliferative, MDA-MB231, treated for three days, MTT, confidence limits in brackets
[9] = treated for three days, MTT, confidence limits in brackets
[10] = seven day treatment, 95% confidence limits in brackets

For CCCCCCC(C)(C)c1cc(OC)c(C2(O)CCCC(C)C2)c(OC)c1 (stereo not drawn) [Compound O-2137], the “Percent inhibition of cell viability, MDA-MB231” value (MDA-MB231 cells [1]; at 5 μM) was 45%^a and the IC50 (4T1 cells) was 3500 nM.

C=C(C)[C@@H]1CCC(C)=C[C@H]1c1c(O)cc(O)cc1CCCCC [Abn-CBD] was tested, and the “inhibition of Id-1 (structure activity relationship)” value (Id-1) was “No inhibition of Id-1”.

For CCCCCc1cc(O)c2c(c1)OC(C)(C)c1ccc(C)cc1-2 [CBN, cannabinol], the “inhibition of Id-1 (structure activity relationship)” value (Id-1) was “partially inhibit Id-1”.

With CCCCCc1cc(O)c(C/C=C(\C)CCC=C(C)C)c(O)c1 [CBG, cannabigerol] the IC50 (MDA-MB231 cells [1]; [7]) was 2300 nM, the IC50 (MDA-MB436 cells; Homo sapiens, MDA-MB-436, 72 h) was 2100 nM and the IC50 (SF126 cells; Homo sapiens, SF-126, 72 h) was 1600 nM.

In the case of C=C(C)[C@@H]1CCC(C)=C[C@H]1c1c(C)cc(O)cc1O [Compound 0-1602], the “inhibition of Id-1 (structure activity relationship)” value (Id-1) is reported as “No inhibition of Id-1”.

For CCCCCc1cc(O)c2c(c1)OC(C)(C)[C@@H]1CCC(C)=C[C@@H]21 [THC, Δ^9-tetrahydrocannabinol], the IC50 (MDA-MB231 cells [1]; read-out: IC50, MDA-MB231 cell viability, Table 5) was 3000 nM, the IC50 (MDA-MB231 cells [1]; [8]) was 1200 nM and the “invasion of MDA-MB231 cells” value (MDA-MB231 cells [2]) was “significantly reduced the invasion”. The “inhibition of Id-1 (structure activity relationship)” value (Id-1) was “had no activity against Id-1; also recorded: No inhibition of Id-1”, the “invasiveness of U251 cells” value (U251 cells [3]) was “effectively inhibited the invasiveness of U251 cells” and the IC50 (U251 cells [3]; Boyden chamber, limits 49-150, read-out: predicted IC50, U251 cell invasiveness) was 85 nM. The IC50 (4T1 cells) was 2300 nM, the “generation of ROS” value (ROS) was “no significant increase in ROS” and the cell cycle phases (U251 cells [4]) was “increases in the population of cells in G1 and G2/M phase and decreases in cells in S phase”. For the same molecule, the “block of apoptosis by CB2 antagonist SR144528” value (U251 cells [5]; 0.5 μM SR144528, combination 1.7/0.4 μM, 2.5 μM THC, 2.0 μM CBD) was “partially blocked by the CB2 antagonist”, the “block of apoptosis by α-tocopherol” value (U251 cells [5]; 20 μM α-tocopherol, combination 1.7/0.4 μM, 2.5 μM THC, 2.0 μM CBD) was “completely blocked by α-tocopherol” and the “apoptosis (annexin)” value (U251 cells [5]; THC 1.7 μM, CBD 0.4 μM, three days) was “did not produce significant changes in apoptosis”. The “caspase 3, 7, 9 and PARP” value (caspase 3, 7, 9 and PARP) was “Small increases in the activity of caspase 7, caspase 9 and PARP but not caspase 3”, the IC50 (MDA-MB436 cells; [9]) was 2500 nM and the IC50 (SF126 cells; [10]) was 900 nM. It also gave an IC50 (SF126 cells; three day treatment, Table 3) of 2500 nM, an IC50 (U87 cells) of 1600 nM and an IC50 (U251 cells [6]) of 1100 nM. For the same molecule, the “p-ERK, higher concentrations alone” value (pERK, JNK, p38 MAPK; 2.5 μM Δ^9-THC, 2.0 μM CBD, three days) was “had no effect on p-ERK activity” and the pERK (pERK, JNK, p38 MAPK; THC 1.7 μM, CBD 0.4 μM, two days) was “no changes in pERK were observed”.

With CCCCCCC(C)(C)c1ccc([C@@H]2C[C@H](O)CC[C@H]2CCCO)c(O)c1 [CP 55, 940] the IC50 (MDA-MB231 cells [1]; [7]) was 2500 nM, the “inhibition of Id-1 (structure activity relationship)” value (Id-1) was “less effective than CBD; also recorded: small inhibition of Id-1; also recorded: partially inhibit Id-1” and the IC50 (MDA-MB436 cells; Homo sapiens, MDA-MB-436, 72 h) was 1300 nM. The IC50 (SF126 cells; Homo sapiens, SF-126, 72 h) was 3300 nM.

Cc1c(C(=O)c2cccc3ccccc23)c2cccc3c2n1[C@H](CN1CCOCC1)CO3 [WIN 55, 212-2] was tested, and the IC50 (MDA-MB231 cells [1]; [8]) was 1700 nM, the “invasion of MDA-MB231 cells” value (MDA-MB231 cells [2]) was “significantly reduced the invasion” and the IC50 (MDA-MB436 cells; [9]) was 2400 nM. For the same molecule, the IC50 (SF126 cells; [10]) was 840 nM, the IC50 (SF126 cells; three day treatment, Table 3) was 1300 nM and the IC50 (U87 cells) was 770 nM. The IC50 (U251 cells [6]) was 1100 nM.
